What was measured:
[1] = The equilibrium dissociation constant was measured experimentally for the compounds interaction with antithrombin.; format: ADME
[2] = The second order rate constant for uncatalysed inhibition of factor Xa by antithrombin was determined for the compound at […]
[3] = Equilibrium constants and K activator was determined.; format: ADME
[4] = delta f max at pH 6.0; format: ADME
[5] = delta f max at pH 7.4; format: ADME
[6] = Catalysed acceleration of antithrombin inhibition of factor Xa (K-uncat = 120 +/- 10 M-1.s-1)
[7] = The equilibrium dissociation constant antithrombin interaction was determined at pH 7.4; format: ADME

Kd [1] [µM]	Kuncat [2] [M⁻¹ s⁻¹]	K act [3] [M⁻¹ s⁻¹]	Delta Fmax [4] [%]	Delta Fmax [5] [%]	Fold_increase [6]	Kd [7] [µM]	Kd [2] [µM]	Structure (SMILES)
10.5	120	–	–	–	–	–	–	O=S(=O)(O)Oc1cc2c(c(OS(=O)(=O)O)c1)C[C@@H](OS(=O)(=O)O)[C@@H](c1ccc(OS(=O)(=O)O)c(OS(=O)(=O)O)c1)O2
–	–	45000	34	34	320	66	2	CO[C@H]1O[C@H](COS(=O)(=O)O)[C@@H](OC2O[C@H](C(=O)O)[C@@H](OC3O[C@H](COS(=O)(=O)O)[C@@H](O)[C@H](O)[C@H]3NS(=O)(=O)O)[C@H](O)[C@H]2O)[C@H](OS(=O)(=O)O)[C@H]1NS(=O)(=O)O (stereo partly drawn) [HEPARIN TRISACCHARIDE DEF]

Source: ChEMBL document CHEMBL1135885, “Designing small, nonsugar activators of antithrombin using hydropathic interaction analyses” (J Med Chem, 2002)
